Reference: patent US20210346398A1, “COMBINATIONS WITH A C-19 STEROID FOR TREATING CANCERS” (priority 2018, published 2021)
Where “and” joins values, the source holds several entries; their conditions need not be identical. Equal entries are not always repeated.

Key:
[1] = system: ZR-75-1N cells; test: WST-1 proliferation assay of ZR-75-1N cells; assay type: cell-based, human; details: FIG. 3B, 4-OHT 20 μM plus Docetaxel 1, 2, 4, 8 nM, 5 days, average of 3 experiments
Method: (§1) T-47D cells were grown routinely in RPMI medium containing 10% fetal calf serum (FCS) and antibiotics in a humidified incubator at 36.5° C./90% humidity and 5% CO2. […] WST-1 assay was used to monitor proliferation at 450 nm wavelength.
Further the human breast cancer cell line ZR-75-1N was cultured as described above and subjected to 4-OHT at a concentration of 20 μM and Docextaxel (Doc) at various concentrations (1, 2, 4, and 8 nM)) as single drugs or in combination for 5 days.

[2] = system: T-47D cells; test: WST-1 proliferation assay of T-47D cells; assay type: cell-based, human; details: for Single drug: absorbance at 450 nm as % of solvent control / Combi: absorbance at 450 nm as % of solvent control, agent in combination with 4-OHT / SE1 (synergistic effect, A anti-cancer compound alone / A combination): 4 days; for Single drug: absorbance at 450 nm as % of solvent control: OHT 10 or 20 μM, EN 10 μM, ETM 25 nM, FUL 1.0 μM, EXE 0.1 μM, Pab 50 nM, Doc 1.0 nM; for Combi: absorbance at 450 nm as % of solvent control, agent in combination with 4-OHT: agent at the single drug concentration plus 4-OHT; for growth inhibition by the combination with 4-OHT compared to the individual substances alone: FIG. 2, 7 days; for SE1 (synergistic effect, A anti-cancer compound alone / A combination): agent plus 4-OHT versus agent alone
Description: The human breast cancer cell line T-47 D (ACC 739) was obtained from DSMZ as frozen cell pellet (Deutsche Sammlung von Mikroorganismen und Zellkulturen). Originally, these cells T-47D cell line was isolated by Keydar et al. (1979) from a pleural effusion obtained from a patient with an infiltrating ductal carcinoma of the breast T-47D is expressing the ER, PR and AR but lacking HER2/neu overexpression. Thus, T-47D may represent a cell line representative for the most prevalent breast cancer subtype.
T-47D were grown routinely in RPMI medium containing 10% fetal calf serum (FCS) and antibiotics in a humidified incubator at 36.5° C./90% humidity and 5% CO2. Cells were maintained in cell culture bottles for less than 20 passages before the individual experiments were conducted; cell suspensions were cultured 96 well plates and exposed at various concentrations of the individual agents; incubation time varied as indicated in the respective figures. WST-1 assay was used to monitor proliferation at 450 nm wavelength.
Growth was as compared to control using WST-1 assay (monitoring absorption at 450 nm wavelength as indicator for cell viability compared to growth control).
as §1

[3] = system: ZR-75-1; test: WST-1 proliferation assay of ZR-75-1 cells; assay type: cell-based, human; details: 4 days; for Single drug: absorbance at 450 nm as % of solvent control: OHT 10 or 20 μM, EN 10 μM, ETM 25 nM, FUL 1.0 μM, EXE 0.1 μM, Pab 50 nM, Doc 1.0 nM; for Combi: absorbance at 450 nm as % of solvent control, agent in combination with 4-OHT: agent at the single drug concentration plus 4-OHT; for SE1 (synergistic effect, A anti-cancer compound alone / A combination): agent plus 4-OHT versus agent alone
[4] = system: MDAMB453; test: WST-1 proliferation assay of MDAMB453 cells; assay type: cell-based, human; details: 4 days; for Single drug: absorbance at 450 nm as % of solvent control: OHT 10 or 20 μM, EN 5 μM, ETM 25 nM, FUL 1.0 μM, EXE 0.1 μM, Pab 50 nM, Doc 1.0 nM; for Combi: absorbance at 450 nm as % of solvent control, agent in combination with 4-OHT: agent at the single drug concentration plus 4-OHT; for SE1 (synergistic effect, A anti-cancer compound alone / A combination): agent plus 4-OHT versus agent alone
[5] = system: VCaP cells; test: WST-1 proliferation assay of VCaP cells; details: for Combi: absorbance at 450 nm as % of solvent control, agent in combination with 4-OHT: EN 10 μM or ABI 10 μM plus 4-OHT; for absorbance at 450 nm as % of solvent control, single compound: EN 10 μM, ABI 10 μM, 4-OHT concentration not stated
[6] = system: LNCaP cells; test: WST-1 proliferation assay of LNCaP cells; details: for Combi: absorbance at 450 nm as % of solvent control, agent in combination with 4-OHT: EN 10 μM or ABI 10 μM plus 4-OHT; for absorbance at 450 nm as % of solvent control, single compound: EN 10 μM, ABI 10 μM, 4-OHT concentration not stated
[7] = FIG. 4A, 4-OHT 10 μM, Bicalutamide 5 or 10 μM, Enzalutamide 5 or 10 μM, day 5

Compound	Single drug: absorbance at 450 nm as % of solvent control [2]	Combi: absorbance at 450 nm as % of solvent control, agent in combination with 4-OHT [2]	Single drug: absorbance at 450 nm as % of solvent control [3]	Combi: absorbance at 450 nm as % of solvent control, agent in combination with 4-OHT [3]	Single drug: absorbance at 450 nm as % of solvent control [4]	Combi: absorbance at 450 nm as % of solvent control, agent in combination with 4-OHT [4]	absorbance at 450 nm as % of solvent control, single compound [5]	absorbance at 450 nm as % of solvent control, single compound [6]	SE1 (synergistic effect, A anti-cancer compound alone / A combination) [2]	SE1 (synergistic effect, A anti-cancer compound alone / A combination) [3]	SE1 (synergistic effect, A anti-cancer compound alone / A combination) [4]	also measured
CC(=O)O[C@@]12CO[C@@H]1C[C@H](O)[C@@]1(C)C(=O)[C@H](O)C3=C(C)[C@@H](OC(=O)[C@H](O)[C@@H](NC(=O)OC(C)(C)C)c4ccccc4)C[C@@](O)([C@@H](OC(=O)c4ccccc4)[C@H]21)C3(C)C [Docetaxel]	31 % of solvent control	20 % of solvent control	72 % of solvent control	43 % of solvent control	103 % of solvent control	89 % of solvent control	–	–	–	–	–	effect on proliferation of the combination with 4-OHT [1]: clear effect of the combination is seen at the lowest dose; effect on proliferation of the combination with 4-OHT compared to the single drugs ([2]; FIG. 3A, Docetaxel 1, 2, 4, 8 nM, 5 days): synergistic effect
C[C@]12CC[C@@H]3c4ccc(O)cc4C[C@@H](CCCCCCCCC[S+]([O-])CCCC(F)(F)C(F)(F)F)[C@H]3[C@@H]1CC[C@@H]2O (stereo partly shown) [Fulvestrant]	38 % of solvent control	22 % of solvent control	90 % of solvent control	43 % of solvent control	80 % of solvent control	27 % of solvent control	–	–	–	–	–	growth inhibition by the combination with 4-OHT compared to the individual substances alone [2]: significant growth inhibition
C=C1C[C@@H]2[C@H](CC[C@]3(C)C(=O)CC[C@@H]23)[C@@]2(C)C=CC(=O)C=C12 [Exemestane]	70 % of solvent control	47 % of solvent control	81 % of solvent control	57 % of solvent control	118 % of solvent control	33 % of solvent control	–	–	–	–	–	growth inhibition by the combination with 4-OHT compared to the individual substances alone [2]: significant growth inhibition
C[C@]12CC[C@H](O)CC1=CC[C@@H]1[C@@H]2CC[C@]2(C)C(c3cccnc3)=CC[C@@H]12 [Abiraterone]	–	–	–	–	–	–	104 % of solvent control	96 % of solvent control	–	–	–	Combi: absorbance at 450 nm as % of solvent control, agent in combination with 4-OHT [5]: 28.11 % of solvent control; Combi: absorbance at 450 nm as % of solvent control, agent in combination with 4-OHT [6]: 90.57 % of solvent control
CC(=O)c1c(C)c2cnc(Nc3ccc(N4CCNCC4)cn3)nc2n(C2CCCC2)c1=O [Palbociclib]	80 % of solvent control	33 % of solvent control	91 % of solvent control	71 % of solvent control	112 % of solvent control	120 % of solvent control	–	–	2.4	1.3	0.9	–
CC/C(=C(\c1ccc(O)cc1)c1ccc(OCCNC)cc1)c1ccccc1 [Endoxifen]	54 % of solvent control	35 % of solvent control	84 % of solvent control	49 % of solvent control	113 % of solvent control	39 % of solvent control	–	–	1.5	1.7	1.2	–
C[C@]12CC[C@H]3[C@@H](CCC4=C(O)C(=O)CC[C@@]43C)[C@@H]1CC[C@@H]2O [4-OHT, 4-hydroxytestosterone]	50 % of solvent control	–	–	–	–	–	33 % of solvent control	78 % of solvent control	–	–	–	effect on cell growth as single compound ([5]; FIG. 4B): very sensitive; effect on cell growth as single compound [6, 7]: only a slight effect; effect on cell growth as single compound ([6]; FIG. 5, 4-OHT 10 μM, Abiraterone 10 μM, day 5): only a slight effect; Single drug: absorbance at 450 nm as % of solvent control ([3]; listed as OH20): 71 % of solvent control; Single drug: absorbance at 450 nm as % of solvent control ([4]; listed as OHT): 55 % of solvent control and 40 % of solvent control; Single drug: absorbance at 450 nm as % of solvent control ([4]; listed as OHT20): 76 % of solvent control
CNC(=O)c1ccc(N2C(=S)N(c3ccc(C#N)c(C(F)(F)F)c3)C(=O)C2(C)C)cc1F [Enzalutamide]	62 % of solvent control	28 % of solvent control	71 % of solvent control	55 % of solvent control	66 % of solvent control	57 % of solvent control	32 % of solvent control	84 % of solvent control	2.2	1.3	1.2	Combi: absorbance at 450 nm as % of solvent control, agent in combination with 4-OHT [5]: 30 % of solvent control; effect on cell growth as single compound ([5]; FIG. 4B): very sensitive; effect on cell growth of the combination with 4-OHT ([5]; FIG. 4B): synergistic effect; Combi: absorbance at 450 nm as % of solvent control, agent in combination with 4-OHT [6]: 58 % of solvent control; effect on cell growth of the combination with 4-OHT ([6]; FIG. 4A, 4-OHT 10 μM plus Bicalutamide 10 μM or Enzalutamide 10 μM, day 5): growth inhibition with a significant synergistic effect; effect on cell growth as single compound [6, 7]: not affected
